Active and inactive are the calls of the source. The calls are words filed in the database; no cut-off is given here.
How the values were obtained:
[1] = Inhibition of voltage-gated calcium channel in Wistar rat synaptoneurosomes after 30 mins by fluorescent ratiometric indicator method
[2] = test system: Plasmodium falciparum Dd2; experiment: Inhibition of voltage-gated calcium channel in Plasmodium flaciparum Dd2 cells assessed as reversal of choloroquine resistance at 1 uM relative to control; design: scale not given: the % may be the effect or the level left
[3] = test system: Plasmodium falciparum Dd2; experiment: Inhibition of voltage-gated calcium channel in Plasmodium flaciparum Dd2 cells assessed as potentiation of choloroquine induced antimalarial activity by measuring ratio of chloroquine IC50 in presence to absence of compound at 1 uM
[4] = test system: Plasmodium falciparum NF54; experiment: Inhibition of voltage-gated calcium channel in Plasmodium flaciparum NF54 cells assessed as potentiation of choloroquine induced antimalarial activity by measuring chloroquine IC50 in presence of compound at 1 uM
CHO = experiment: Cytotoxicity against CHO cells by MTT assay; format: cell-based; conditions: Cricetulus griseus
[5] = Selectivity index, ratio of IC50 for CHO cells to IC50 for chloroquine sensitive Plasmodium falciparum NF54; format: toxicity, cell-based; conditions: hamster, read-out: Ratio IC50
Plasmodium falciparum [6] = experiment: Antiplasmodial activity against multidrug resistant Plasmodium falciparum Dd2 by spectroscopic method; format: functional, organism-based
Plasmodium falciparum [7] = experiment: Antiplasmodial activity against chloroquine sensitive Plasmodium falciparum NF54 by spectroscopic method; format: functional, organism-based
Rattus norvegicus = species on record: Rattus norvegicus; experiment: Inhibition of voltage-gated calcium channel in Wistar rat synaptoneurosomes at 100 uM after 30 mins by fluorescent ratiometric indicator method
[8] = test system: Plasmodium falciparum Dd2; experiment: Inhibition of voltage-gated calcium channel in Plasmodium flaciparum Dd2 cells assessed as reversal of choloroquine resistance at 0.8 uM relative to control; design: scale not given: the % may be the effect or the level left
[9] = test system: Plasmodium falciparum Dd2; experiment: Inhibition of voltage-gated calcium channel in Plasmodium flaciparum Dd2 cells assessed as reversal of choloroquine resistance at 0.5 uM relative to control; design: scale not given: the % may be the effect or the level left

| SMILES | IC50 [1] | Activity [2] | Ratio IC50 [3] | Activity [4] | IC50 (CHO) | selectivity ratio [5] | IC50 (Plasmodium falciparum [6]) | IC50 (Plasmodium falciparum [7]) | inhibition (Rattus norvegicus) | Activity [8] | Activity [9] |
| --- | --- | --- | --- | --- | --- | --- | --- | --- | --- | --- | --- |
| COCCOC(=O)C1=C(C)NC(C)=C(C(=O)OC(C)C)C1c1cccc([N+](=O)[O-])c1 (stereo unspecified) [NIMODIPINE] | 0.008 µM |  |  |  |  |  |  |  |  |  |  |
| N#Cc1c2ccccc2cn1CCCNC12CC3CC(CC(C3)C1)C2 | 100 µM | 42% | 0.58 | inactive | 8.2 µM | 2.1 | 3.89 µM | 3.83 µM | 54% |  |  |
| O=[N+]([O-])c1ccc(NCCCNC23CC4CC(CC(C4)C2)C3)c([N+](=O)[O-])c1 |  |  |  |  | 8.01 µM | 7.1 | 18.8 µM | 1.13 µM | 12% |  |  |
| COc1ccc(CNC23CC4CC(CC(C4)C2)C3)cc1 |  |  |  |  | > 368 µM | > 9.4 |  | 39.4 µM | 71% |  |  |
| CN(C)c1cccc2cc(S(=O)(=O)NCCN3C4C5C6CC7C8C6C4C8C3(O)C75)ccc12 (stereo unspecified) | 0.48 µM | 81% | 0.19 | inactive | 119 µM | 31.7 | 6.25 µM | 3.76 µM | > 95% |  |  |
| CN(C)c1cccc2c(S(=O)(=O)NCCCNC34CC5CC(CC(C5)C3)C4)cccc12 | 0.27 µM | 65% | 0.35 | inactive | 7.4 µM | 2.6 | 7.01 µM | 2.83 µM | > 95% |  |  |
| O=[N+]([O-])c1ccc(CNC23OC4C5C6CC(C7C6C4C72)C53)cc1 (stereo unspecified) |  | 25% | 0.65 | inactive | > 322 µM | > 449 | 54.8 µM | 0.718 µM | 48% |  |  |
| CCN(CC)CCCC(C)Nc1ccnc2cc(Cl)ccc12 (stereo unspecified) [CHLOROQUINE] |  |  |  |  | 35.8 µM |  |  |  |  |  |  |
| O=C(OCCNC12OC3C4C5CC(C6C5C3C61)C42)c1cccc(/C=C/[N+](=O)[O-])c1 (stereo unspecified) | 0.98 µM | 45% | 0.55 | inactive | > 254 µM | > 9.7 | 34.5 µM | 26.2 µM | > 95% |  |  |
| O=[N+]([O-])c1ccc(CNC23CC4CC(CC(C4)C2)C3)cc1 |  |  |  |  | > 349 µM | > 4.7 |  | 74 µM | 86% |  |  |
| OC12C3C4CC5C6C4C1C6C(C53)N2Cc1ccccc1 (stereo unspecified) | 35 µM | 64% | 0.36 | inactive | 84.8 µM | 11.1 | 13.3 µM | 7.62 µM | > 95% |  |  |
| OC12C3C4CC5C6C4C1C6C(C53)N2CCN1CCN(Cc2ccccc2)CC1 (stereo unspecified) | 100 µM | 19% | 0.81 | inactive | > 265 µM | > 29.1 | 6.28 µM | 9.09 µM | 51% |  |  |
| c1ccc(CNC23CC4CC(CC(C4)C2)C3)cc1 |  |  |  |  | > 414 µM | > 3.3 |  | 126 µM | 40% |  |  |
| COc1ccc(CCN(C)CCCC(C#N)(c2ccc(OC)c(OC)c2)C(C)C)cc1OC (stereo unspecified) |  | 73% | 0.27 |  |  |  |  |  |  | 63% | 47% |
| c1ccc(CNC23OC4C5C6CC(C7C6C4C72)C53)cc1 (stereo unspecified) | 86 µM |  |  | inactive | > 10 µM |  | > 10 µM | > 10 µM | 52% |  |  |
